Data on four compounds can be found in patent US4751305A, “2-heterocyclobenzo[B][1,6]naphthyridines as inhibitors of interleukin” (American Home Products Corporation, priority 1987, dated 1988).

This assay relates to IL 1-induced release of neutral protease from rabbit articular chondrocytes. As to the kind of experiment: inhibition of the IL 1-induced release of neutral protease from rabbit articular chondrocytes (azocoll neutral protease assay). Format: cell-based. Conditions: Oryctolagus cuniculus, Chondrocyte, compound 10 min before purified human IL 1, 24 h, read-out: % Inhibition (I.S.D.). On the procedure:
The ability of the compounds of the inventions to inhibit interleukin 1 is measured by the ability of the test compounds to inhibit the IL 1-induced release of neutral protease from rabbit articular chondrocytes.
This assay is carried out as follows:
Isolation of rabbit chondrocytes:
Male New Zealand White rabbits are anesthetized with 50 mg/kg of ketamine (i.m.) and killed by an intracardiac injection of 3 mls. of Nembutal. The knee joints of both legs are resected and the articular surfaces are exposed. Cartilage slices are obtained using a scalpel and are placed in a tissue culture dish (100 mm diameter) containing 10 mls of Hank's balanced salt solution (HBSS). The chondrocytes within the cartilage slices are then liberated by a series of enzyme digestions. The slices are incubated for 10 min. at 37° C. in 0.05% hyaluronidase (Sigma H-3884), rinsed with HBSS and incubated with 0.2% trypsin (Sigma T-2395) for 10 min. at 37° C. The slices are rinsed again and incubated for 10 mins. at 37° C. with 1.2% collagenase (Sigma C-5138). The slices are then rinsed again with HBSS and resuspended in 10 ml of Ham's F-12 medium containing 10% fetal bovine calf serum (FCS) and 0.2% collagenase and incubated overnight at 37° C. in a 5% CO2 incubator. The next day, the medium containing the digested cartilage fragments and liberated chondrocytes is transferred to a 15 ml centrifuge tube and the cells are collected by centrifugation and washed twice and resuspended in Ham's F-12 medium. The cells are then plated into 24-well tissue culture plates (2×10^5 cells/well) and incubated at 37° C. until confluent (usually 4-6 days).
Stimulation of chondrocytes and drug treatment:
The confluent chondrocytes are rinsed twice with serum-free Ham's F-12 medium and 1 ml is added to each well. Fifty $1 of purified human IL 1(100 Units/ml; Genzyme Corporation, Boston, MA) is then added to stimulate these cells to secrete neutral protease. To measure drug effects, the cells are treated with test compound 10 min. prior to addition of IL 1. The standard screening dose is 10 $M. Twenty-four hours after IL 1 stimulation, supernatant fluids are collected and assayed for neutral protease activity.
The neutral protease activity of chondrocyte supernatant fluids is determined by their ability to degrade an insoluble protease substrate, azocoll (Sigma). Supernatants are treated for 10 min. at room temperature with 350 $M p-aminophenyl-murcuric acetate to activate the latent enzyme. Three hundred $1 of supernatant is then mixed with 500 $1 of a 20 mg/ml suspension of azocoll and incubated at 37° C. for 18-24 hrs. with gentle rocking. The mixtures are centrifuged and the amount of substrate hydrolyzed is determined by measuring the absorbance of the supernatant at 520 nm.
Drug effects are calculated as the % change in enzyme activity (absorbance)by supernatants from drug-treated chondrocytes relative to enzyme activity of supernatants from vehicle-treated chondrocytes as follows: [formula]

The structures appear in SMILES notation.

Regarding `Clc1ccc2c(NNc3ccccc3)c3c(nc2c1)CCN(c1cnccn1)C3` [Example 5, 7-Chloro-1,2,3,4-tetrahydro-10-(2-phenylhydrazino)-2-(2-pyrazinyl)benzo[b][1,6]naphthyridine], the inhibition at 10 µM came to 85 ± 5%.
The same measure, in the same setting: next, `Clc1ccc2c(Cl)c3c(nc2c1)CCN(c1ccc2ccccc2n1)C3` [Example 3, 7,10-Dichloro-1,2,3,4-tetrahydro-2-(2-quinolinyl)benzo[b][1,6]naphthyridine]: no more than 20%.
Consider `N#Cc1ccc(N2CCc3nc4cc(Cl)ccc4c(Cl)c3C2)nc1` [Example 4, 6-(7,10-Dichloro-3,4-dihydrobenzo[b][1,6]naphthyridin-2(1H)-yl)-3-pyridine-carbonitrile, hemihydrate], for which the inhibition at 10 µM was determined as 94%. In addition, the inhibition at 5 µM (dose 5 μM) was determined as 83%.
For `Clc1ccc2c(Cl)c3c(nc2c1)CCN(c1ncccn1)C3` [Example 1, 7,10-Dichloro-1,2,3,4-tetrahydro-2-(2-pyrimidinyl)benzo[b][1,6]naphthyridine], the inhibition at 10 µM came out at 34 ± 8%.
